{"source": "patent US8633182B2", "about": "“Indanyloxyphenylcyclopropanecarboxylic acids” (Boehringer Ingelheim International GmbH, priority 2012, dated 2014)"}
{"molecular_target": "human GPR40 receptor (Homo sapiens, UniProt O14842)", "sequence (O14842 whole entry)": "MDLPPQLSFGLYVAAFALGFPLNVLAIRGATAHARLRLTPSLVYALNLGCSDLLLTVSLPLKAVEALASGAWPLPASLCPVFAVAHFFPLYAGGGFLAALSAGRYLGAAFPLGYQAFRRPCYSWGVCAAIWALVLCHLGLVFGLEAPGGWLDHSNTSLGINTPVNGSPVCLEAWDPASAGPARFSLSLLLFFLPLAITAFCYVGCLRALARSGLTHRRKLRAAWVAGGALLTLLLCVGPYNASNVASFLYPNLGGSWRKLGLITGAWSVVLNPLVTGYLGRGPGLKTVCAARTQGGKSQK", "assay": "IP1 accumulation measurements using the IPOne assay system in 1321N1 cells stably expressing human GPR40 receptor", "format": "cell-based", "details": "IP1 accumulation (HTRF), 1321N1 cells stably expressing human GPR40, 1 hour stimulation at 37° C.", "experimental": "IP1 accumulation measurements using the IPOne assay system—1321N1 cells stably expressing human GPR40 receptor (Euroscreen, Belgium) are seeded 24 h before the assay in black clear-bottom collagen-coated or white 384-well plates in culture medium containing 10% FCS, 1% Na-Pyruvate and 400 μg/mL G418. IP1 is assayed according to the Manufacturer's description (Cisbio Bioassays, France). In brief, the assay is started by substitution of the culture medium by stimulation buffer (Hepes 10 mM, CaCl2 1 mM, MgCl2 0.5 mM, KCl 4.2 mM, NaCl 146 mM and glucose 5.5 mM, pH 7.4) without LiCl or with […]. Cells are stimulated for 1 hour at 37° C., 5 or 10% CO2 by addition of the compounds that are diluted in stimulation buffer containing LiCl yielding a final LiCl concentration of 50 mM. Assays are stopped by adding HTRF-conjugates (IP1-d2 and Anti-IP1 cryptate Tb) and lysis buffer, provided by the manufacturer. After an incubation time of 1 hour at room temperature plates are measured using an EnVision™, Perkin Elmer. The obtained fluorescence ratios at […] are then used to calculate the pEC50 values using GraphPad Prism 5 (Graphpad Software Inc, USA) or Assay Explorer 3.3 Software (Accelrys, Inc.) by interpolation using an IP1 reference curve and subsequent sigmoidal curve fitting allowing for a variable hill slope.", "units": {"EC50": "nM"}}
{"smiles": "Cc1cc(OC2CCOCC2)cc(C)c1-c1c(C#N)ccc2c1CC[C@H]2Oc1ccc([C@H]2C[C@@H]2C(=O)O)cc1", "note": "[Example 38, (1S,2S)-2-(4-{(R)-5-Cyano-4-[2,6-dimethyl-4-(tetrahydro-pyran-4-yloxy)-phenyl]-indan-1-yloxy}-phenyl)-cyclopropane-carboxylic acid]", "EC50": 40}
{"smiles": "Cc1cc(OCC2(O)CCS(=O)(=O)CC2)cc(C)c1-c1ccc(F)c2c1CC[C@H]2Oc1ccc([C@H]2C[C@@H]2C(=O)O)cc1", "note": "[Example 39]", "EC50": 6}
{"smiles": "Cn1ncc2cccc(-c3ccc(F)c4c3CC[C@H]4Oc3ccc([C@H]4C[C@@H]4C(=O)O)cc3)c21", "note": "[Example 40]", "EC50": 2}
{"smiles": "Cc1cc(-c2nc(C)n(CC(C)(C)O)n2)cc(C)c1-c1ccc(F)c2c1CC[C@H]2Oc1ccc([C@H]2C[C@@H]2C(=O)O)cc1", "note": "[Example 41, (1S,2S)-2-[4-((R)-7-Fluoro-4-{4-[1-(2-hydroxy-2-methyl-propyl)-5-methyl-1H-[1,2,4]triazol-3-yl]-2,6-dimethyl-phenyl}-indan-1-yloxy)-phenyl]-cyclopropanecarboxylic acid]", "EC50": 2}
{"smiles": "Cc1cc(-c2nc(C)n(C)n2)cc(C)c1-c1ccc(F)c2c1CC[C@H]2Oc1ccc([C@H]2C[C@@H]2C(=O)O)cc1", "note": "[Example 42, (1S,2S)-2-(4-{(R)-4-[4-(1,5-Dimethyl-1H-[1,2,4]triazol-3-yl)-2,6-dimethyl-phenyl]-7-fluoro-indan-1-yloxy}-phenyl)-cyclopropanecarboxylic acid]", "EC50": 1}
{"smiles": "Cc1cc(-c2nnn(CC(C)(C)O)n2)cc(C)c1-c1ccc(F)c2c1CC[C@H]2Oc1ccc([C@H]2C[C@@H]2C(=O)O)cc1", "note": "[Example 43, (1S,2S)-2-[4-((R)-7-Fluoro-4-{4-[2-(2-hydroxy-2-methyl-propyl)-2H-tetrazol-5-yl]-2,6-dimethyl-phenyl}-indan-1-yloxy)-phenyl]-cyclopropanecarboxylic acid]", "EC50": 3}
{"smiles": "Cc1cc(-c2nnnn2C)cc(C)c1-c1ccc(F)c2c1CC[C@H]2Oc1ccc([C@H]2C[C@@H]2C(=O)O)cc1", "note": "[Example 44]", "EC50": 12}
{"smiles": "Cc1cc(-c2nnn(C)n2)cc(C)c1-c1ccc(F)c2c1CC[C@H]2Oc1ccc([C@H]2C[C@@H]2C(=O)O)cc1", "note": "[Example 45]", "EC50": 2}
{"smiles": "O=C(O)[C@H]1C[C@@H]1c1ccc(O[C@@H]2CCc3c(-c4cncc5ccccc45)ccc(F)c32)cc1", "note": "[Example 46, (1S,2S)-2-(4-((1R)-7-fluoro-4-(isoquinolin-4-yl)-2,3-dihydro-1H-inden-1-yloxy)phenyl)cyclo-propanecarboxylic acid]", "EC50": 6}
{"smiles": "N#Cc1sccc1-c1ccc(F)c2c1CC[C@H]2Oc1ccc([C@H]2C[C@@H]2C(=O)O)cc1", "note": "[Example 47]", "EC50": 191}
{"smiles": "O=C(O)[C@H]1C[C@@H]1c1ccc(O[C@@H]2CCc3c(-c4cccc5ncccc45)ccc(F)c32)cc1", "note": "[Example 48, (1S,2S)-2-(4-((1R)-7-fluoro-4-(quinolin-5-yl)-2,3-dihydro-1H-inden-1-yloxy)phenyl)cyclo-propanecarboxylic acid]", "EC50": 6}
{"smiles": "O=C(O)[C@H]1C[C@@H]1c1ccc(O[C@@H]2CCc3c(-c4cccc5cnccc45)ccc(F)c32)cc1", "note": "[Example 49, (1S,2S)-2-(4-((1R)-7-fluoro-4-(isoquinolin-5-yl)-2,3-dihydro-1H-inden-1-yloxy)phenyl)cyclo-propanecarboxylic acid]", "EC50": 5}
{"smiles": "O=C(O)[C@H]1C[C@@H]1c1ccc(O[C@@H]2CCc3c(-c4ccnc5ccccc45)ccc(F)c32)cc1", "note": "[Example 50]", "EC50": 11}
{"smiles": "COc1cccnc1-c1ccc(F)c2c1CC[C@H]2Oc1ccc([C@H]2C[C@@H]2C(=O)O)cc1", "note": "[Example 51]", "EC50": 569}
{"smiles": "O=C(O)[C@H]1C[C@@H]1c1ccc(O[C@@H]2CCc3c(-c4ccncc4C(F)(F)F)ccc(F)c32)cc1", "note": "[Example 52, (1S,2S)-2-(4-((1R)-7-fluoro-4-(3-(trifluoromethyl)pyridin-4-yl)-2,3-dihydro-1H-inden-1-yloxy)phenyl)cyclopropanecarb oxylic acid]", "EC50": 38}
{"smiles": "Cn1ccc2c(-c3ccc(F)c4c3CC[C@H]4Oc3ccc([C@H]4C[C@@H]4C(=O)O)cc3)cccc21", "note": "[Example 53]", "EC50": 13}
{"smiles": "Cc1c(C#N)cccc1-c1ccc(F)c2c1CC[C@H]2Oc1ccc([C@H]2C[C@@H]2C(=O)O)cc1", "note": "[Example 54]", "EC50": 5}
{"smiles": "N#Cc1ncccc1-c1ccc(F)c2c1CC[C@H]2Oc1ccc([C@H]2C[C@@H]2C(=O)O)cc1", "note": "[Example 55]", "EC50": 75}
{"smiles": "Cc1nn(C)cc1-c1ccc(F)c2c1CC[C@H]2Oc1ccc([C@H]2C[C@@H]2C(=O)O)cc1", "note": "[Example 56, (1S,2S)-2-(4-((1R)-4-(1,3-dimethyl-1H-pyrazol-4-yl)-7-fluoro-2,3-dihydro-1H-inden-1-yloxy)phenyl)cyclopropanecarb oxylic acid]", "EC50": 224}
{"smiles": "Cc1ncc(-c2ccc(F)c3c2CC[C@H]3Oc2ccc([C@H]3C[C@@H]3C(=O)O)cc2)n1C", "note": "[Example 57, (1S,2S)-2-(4-((1R)-4-(1,2-dimethyl-1H-imidazol-5-yl)-7-fluoro-2,3-dihydro-1H-inden-1-yloxy)phenyl)cyclopropanecarb oxylic acid]", "EC50": 1400}
{"smiles": "Cc1ccc2c(cnn2C)c1-c1ccc(F)c2c1CC[C@H]2Oc1ccc([C@H]2C[C@@H]2C(=O)O)cc1", "note": "[Example 58, (1S,2S)-2-(4-((1R)-4-(1,5-dimethyl-1H-indazol-4-yl)-7-fluoro-2,3-dihydro-1H-inden-1-yloxy)phenyl)cyclopropanecarb oxylic acid]", "EC50": 4}
{"smiles": "Cn1ncc2c(-c3ccc(F)c4c3CC[C@H]4Oc3ccc([C@H]4C[C@@H]4C(=O)O)cc3)cccc21", "note": "[Example 59]", "EC50": 17}
{"smiles": "Cn1ccc2cccc(-c3ccc(F)c4c3CC[C@H]4Oc3ccc([C@H]4C[C@@H]4C(=O)O)cc3)c21", "note": "[Example 60]", "EC50": 3}
{"smiles": "O=C(O)[C@H]1C[C@@H]1c1ccc(O[C@@H]2CCc3c(-c4ccccc4-c4cocn4)ccc(F)c32)cc1", "note": "[Example 61, (1S,2S)-2-(4-((1R)-7-fluoro-4-(2-(oxazol-4-yl)phenyl)-2,3-dihydro-1H-inden-1-yloxy)-phenyl)cyclopropanecarboxylic acid]", "EC50": 28}
{"smiles": "O=C(O)[C@H]1C[C@@H]1c1ccc(O[C@@H]2CCc3c(-c4ccccc4-c4cnco4)ccc(F)c32)cc1", "note": "[Example 62]", "EC50": 29}
{"smiles": "O=C(O)C1CC1c1ccc(OC2CCc3c2ccc(C(F)(F)F)c3-c2ccc(OCC3(O)CCOCC3)cc2)cc1", "note": "(stereo not drawn) [Example 63]", "EC50": 7}
{"smiles": "Cc1nc(-c2ccc(-c3c(C(F)(F)F)ccc4c3CC[C@H]4Oc3ccc([C@H]4C[C@@H]4C(=O)O)cc3)cc2)no1", "note": "[Example 64, (1S,2S)-2-(4-{(R)-4-[4-(5-Methyl-[1,2,4}oxadiazol-3-yl)-phenyl]-5-trifluoromethyl-indan-1-yloxy}-phenyl)-cyclopropanecarboxylic acid]", "EC50": 3}
